This note sets out measurements from ChEMBL document CHEMBL1143692, “Modulating paclitaxel bioavailability for targeting prostate cancer” (Bioorg Med Chem, 2007).

Starred links: 1 amine or outer side, 2 acyl side, 3 side chain; linkers in the order of their positions; H or OH if unused. Residues, ends and D or L forms follow the SMILES beside them. *: point of attachment. Morpholide = C1CN(*)CCO1; CO = O=C([*:1])[*:2]

Series [1] deals with prostate-specific antigen. Briefly: Half life in Tris buffer at pH 7.8, 37 degC for 48 hrs in presence of prostate-specific antigen at 100 uM. The series is classed as ADME, Prostate gland. To be noted: Tris buffer with prostate-specific antigen.
The next series deals with Serum. The series can be described thus: Degradation in serum at 100 uM after 48 hrs. The series is classed as functional, Homo sapiens.
The species entered for series [2] is Homo sapiens. The series can be described thus: Activity at prostate-specific antigen hydrolysis at pH 7.8. The series is classed as tissue-based. To be noted: Prostate gland.
A further series has as its system Plasma. Briefly: Degradation in plasma at 100 uM after 48 hrs. Format: functional, Homo sapiens.
Series [3] deals with TSU. The series can be described thus: Growth inhibition of human TSU cells at 1 nM. The series is classed as functional.
The nature of series [4]: Half life in serum at 100 uM after 48 hrs at 37 degC. The settings on record: human. The series is classed as ADME, cell-free.
For series [5], the species on record is Homo sapiens. Briefly: Ratio of […] for prostate-specific antigen. To be noted: Prostate gland.
The subject of the next series is CWR22R. The series can be described thus: Toxicity against human CWR22Rv1 cells upto 100 uM. The series is classed as functional, cell-based.
Series [6] has as its system TSU. The series can be described thus: Toxicity against human TSU cells upto 100 uM. The series is classed as functional, cell-based.
Series [7] deals with DU-145. Briefly: Toxicity against human DU145 cells upto 100 uM. The series is classed as functional, cell-based.
The subject of series [8] is DU-145. Briefly: Growth inhibition of human DU145 cells. Format: functional, cell-based.
Series [9] in a line: Growth inhibition of human CWR22Rv1 cells. Format: functional, cell-based, CWR22R. The settings on record: 22Rv1.
Series [10] can be described thus: Cytotoxicity against human CWR22Rv1 cells after 96 hrs. The series is classed as functional, cell-based, CWR22R. To be noted: 22Rv1, 96 h.
The test system of series [11] is TSU. The series can be described thus: Growth inhibition of human TSU cells. Format: functional, cell-based.

Usually half-life stands for the time needed for the level to fall by half in the phase considered. By Km is commonly meant the substrate concentration at which the rate is half of its maximum. In general, kcat refers to the number of substrate molecules converted per active site and unit of time at saturation. As a reminder, the inhibition is the drop in the measured response relative to a control, in per cent. A lower inhibition goes with a response near the control. What is called kcat/Km is the turnover number divided by the Michaelis constant. A word on the IC50: it is the concentration that inhibits the measured activity by half.

Take `CC(=O)O[C@H]1C(=O)[C@]2(C)[C@@H](OC(=O)OCc3ccc(NC(=O)[C@H](CCC(N)=O)NC(=O)[C@H](CC(C)C)NC(=O)[C@H](CCCCN)NC(=O)[C@H](CO)NC(=O)[C@H](CO)NC(=O)[C@H](Cc4c[nH]cn4)NC(=O)N4CCOCC4)cc3)C[C@@H]3OC[C@]3(OC(C)=O)[C@@H]2[C@H](OC(=O)c2ccccc2)[C@]2(O)C[C@@H](OC(=O)[C@H](O)[C@@H](NC(=O)c3ccccc3)c3ccccc3)C(C)=C1C2(C)C`: the half-life at 100 µM in series [1] was 14 h. This compound also showed an Activity in the series on Serum of 92%. Also, in the series filed under Homo sapiens [2], the Km came out at 216 µM and the kcat was 0.00585 s⁻¹. This compound had a Percent degraded with Plasma of 7%. This compound also registered an inhibition at 0.001 µM in the series with TSU [3] of 30%. Also, the half-life at 100 µM in series [4] was 1.5 h. The kcat/Km in the series filed under Homo sapiens [5] is 27 M⁻¹ s⁻¹.

In the case of `CC(=O)O[C@H]1C(=O)[C@]2(C)[C@@H](O)C[C@@H]3OC[C@]3(OC(C)=O)[C@@H]2[C@H](OC(=O)c2ccccc2)[C@]2(O)C[C@@H](OC(=O)[C@H](OC(=O)OCc3ccc(NC(=O)[C@H](CCC(N)=O)NC(=O)[C@H](CC(C)C)NC(=O)[C@H](CCCCN)NC(=O)[C@H](CO)NC(=O)[C@H](CO)NC(=O)[C@H](Cc4c[nH]cn4)NC(=O)N4CCOCC4)cc3)[C@@H](NC(=O)c3ccccc3)c3ccccc3)C(C)=C1C2(C)C`, the half-life at 100 µM is 12 h in [1] and 1 h in [4]. Further, in the series on Serum, the Activity is recorded as 87%. In addition, the Percent degraded in the series on Plasma was 10%. Besides, at 0.001 µM the inhibition in the series on TSU [3] was 30%.

In the series with TSU [3], `CC(=O)O[C@H]1C(=O)[C@@]2(C)[C@H]([C@H](OC(=O)c3ccccc3)[C@]3(O)C[C@H](OC(=O)[C@H](O)[C@@H](NC(=O)c4ccccc4)c4ccccc4)C(C)=C1C3(C)C)[C@]1(OC(C)=O)CO[C@@H]1C[C@@H]2O` [PACLITAXEL] showed an inhibition at 0.001 µM of 90%.

Regarding `NCCCC[C@H](NC(=O)[C@H](CO)NC(=O)[C@H](CO)NC(=O)N1CCOCC1)C(=O)N[C@@H](Cc1ccc(O)cc1)C(=O)N[C@@H](CCC(N)=O)C(=O)O` ({Morpholide-CO}-SSKYQ-OH), the Activity result with CWR22R, in the series on TSU [6] and with DU-145 [7] was “Not toxic” in each case.

Consider `CC(=O)O[C@H]1C(=O)[C@]2(C)[C@@H](O)C[C@@H]3OC[C@]3(OC(C)=O)[C@@H]2[C@H](OC(=O)c2ccccc2)[C@]2(O)C[C@@H](OC(=O)[C@H](OC(=O)N(C)CCNC(=O)[C@H](CCC(N)=O)NC(=O)[C@H](Cc3ccc(O)cc3)NC(=O)[C@H](CCCCN)NC(=O)[C@H](CO)NC(=O)[C@H](CO)NC(=O)N3CCOCC3)[C@@H](NC(=O)c3ccccc3)c3ccccc3)C(C)=C1C2(C)C`, for which, in series [1], the half-life at 100 µM was 6 h. Also, the IC50 was under 1 nM in the series on DU-145 [8], under 1 nM in [9], 1000 nM in series [10] and under 1 nM with TSU [11]. For the same compound, the Activity in the series on Serum is reported as under 2%. Besides, in the series on Plasma, the Percent degraded is listed as under 3%.

As for `CC(=O)O[C@H]1C(=O)[C@]2(C)[C@@H](O)C[C@@H]3OC[C@]3(OC(C)=O)[C@@H]2[C@H](OC(=O)c2ccccc2)[C@]2(O)C[C@@H](OC(=O)[C@H](OC(=O)N(C)CCNC(=O)[C@H](CCC(N)=O)NC(=O)[C@H](CC(C)C)NC(=O)[C@H](CCCCN)NC(=O)[C@H](CO)NC(=O)[C@H](CO)NC(=O)[C@H](Cc3c[nH]cn3)NC(=O)N3CCOCC3)[C@@H](NC(=O)c3ccccc3)c3ccccc3)C(C)=C1C2(C)C`, in [1], the half-life at 100 µM is 10 h. In addition, in the series with Serum, the Activity is recorded as under 2%. This compound also showed a Percent degraded in the series on Plasma of under 3%.
